Data: patent US9862730B2, “Imidazothiadiazole derivatives as protease activated receptor 4 (PAR4) inhibitors for treating platelet aggregation” (BRISTOL-MYERS SQUIBB COMPANY, priority 2012, dated 2018)

Tests used:
PAR4 [1] = target: T1, PAR4 (Homo sapiens (Human), UniProt Q96RI0); test: Gamma thrombin induced platelet aggregation assay in PRP (PRP assay); format: cell-based
Excerpt: The compounds of the current invention can be tested in vitro for their ability to inhibit platelet aggregation induced by gamma-thrombin as shown in Example C. Gamma-thrombin, a proteolytic product of alpha-thrombin which no longer interacts with PAR1, selectively cleaves and activates PAR4 (Soslau, G. et al., “Unique pathway of thrombin-induced platelet aggregation mediated by glycoprotein Ib”, J. Biol. Chem., 276:21173-21183 (2001)). Platelet aggregation can be monitored in a 96-well microplate aggregation assay format or using standard platelet aggregometer. The aggregation assay can also be employed to test the selectivity of the compound for inhibiting platelet aggregation induced by PAR4 agonist peptides, PAR1 agonist peptide, ADP, or thromboxane analogue U46619.
The platelet rich plasma was isolated by centrifugation at 170 g for 14 minutes.
The ability of the compounds of the current invention to inhibit platelet aggregation induced by gamma-thrombin was tested in a 96-well microplate aggregation assay format. Briefly, PRP or washed platelet suspension (100 μl) was pre-incubated for 5 minutes at room temperature with varying concentrations of compounds. Aggregation was initiated by ˜10-50 nM gamma thrombin (Haematologic Technologies, Essex Junction, Vt.), which was titrated daily to achieve 80% platelet aggregation. Refludan at 1 U/mL (Berlex, Montville, N.J.) was added to the gamma thrombin sample to prevent PAR1 activation induced by residual alpha-thrombin contamination. The plate was then placed into a 37° C. Molecular Devices (Sunnyvale, Calif.) SPECTRAMAX® Plus Plate Reader. […] Data was collected with SOFTMAX® 4.71 software. The plate also included an untreated control sample which served as ODmax, while buffer containing no platelets was the ODmin. Platelet aggregation was determined by subtracting the ODmax from the ODmin for the 100% aggregation value. In experimental samples, the observed transmission was subtracted from the minimum value and then compared to the 100% aggregation value to determine the percentage aggregation. IC50 values are determined using Excel Fit software.
As indicated above, the PRP assay, an in vitro assay, measures the PAR4 antagonist activity of compounds tested as described in Example C.

PAR4 [2] = target: T1, PAR4; test: FLIPR assay in PAR4-expressing HEK293 cells (PAR4 antagonist activity, calcium mobilization); format: cell-based; details: FLIPR assay as described in Example A
Procedure, shortened: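 Calcium-flux antagonist readout: compounds preincubated 30 min at room temperature with PAR4-transfected HEK293 cells in HBSS with 10 mM HEPES (0.67% DMSO final), then agonist peptide added. Agonist activity checked on compound addition; cells carry endogenous PAR1.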

T1 sequence (Q96RI0 18-385): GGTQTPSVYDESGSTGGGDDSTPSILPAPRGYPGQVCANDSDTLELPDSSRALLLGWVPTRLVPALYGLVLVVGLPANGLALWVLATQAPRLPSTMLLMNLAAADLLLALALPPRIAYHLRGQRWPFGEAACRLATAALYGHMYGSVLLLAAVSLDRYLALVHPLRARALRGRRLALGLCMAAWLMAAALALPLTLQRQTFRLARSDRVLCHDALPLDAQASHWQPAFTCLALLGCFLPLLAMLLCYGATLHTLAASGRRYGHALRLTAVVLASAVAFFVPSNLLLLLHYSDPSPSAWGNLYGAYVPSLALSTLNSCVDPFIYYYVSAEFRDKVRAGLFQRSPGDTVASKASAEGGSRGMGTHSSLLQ

SMILES	IC50 (PAR4 [1])	IC50 (PAR4 [2])
COc1nn2cc(-c3nc4ccccc4s3)nc2s1 [Example 5, 2-(2-Methoxyimidazo[2,1-b][1,3,4]thiadiazol-6-yl)benzo[d]thiazole]	> 30 µM	0.351 µM
COc1nn2cc(-c3cc4ccc(OC)c(OC)c4o3)nc2s1 [Example 10, 6-(6,7-Dimethoxybenzofuran-2-yl)-2-methoxyimidazo[2,1-b][1,3,4]thiadiazole]	> 30 µM	1.8 µM
COc1cccc2cc(-c3cn4nc(SC)sc4n3)oc12 [Example 14]	9.44 µM	0.00868 µM
COc1ccc2oc(-c3cn4nc(SC)sc4n3)cc2c1 [Example 16]	> 30 µM	0.369 µM
CSc1nn2cc(-c3cc4ccccc4s3)nc2s1 [Example 17]	> 30 µM	
CSc1nn2cc(-c3cc4cccc(C)c4o3)nc2s1 [Example 22]	8.76 µM	0.217 µM
CCOc1nn2cc(-c3cc4ccccc4o3)nc2s1 [Example 26]	> 30 µM	
CCOc1nn2cc(-c3nc4ccccc4s3)nc2s1 [Example 27]	> 30 µM	1.78 µM
CCOc1cccc2cc(-c3cn4nc(OC)sc4n3)oc12 [Example 34]	> 30 µM	0.149 µM
COc1nn2cc(-c3oc4c(OC)c(OC)ccc4c3C)nc2s1 [Example 36]	> 30 µM	1.66 µM
CCc1nn2cc(-c3nc4cc(F)c(F)cc4o3)nc2s1 [Example 38]	> 30 µM	0.0666 µM
CCc1nn2cc(-c3nc4ccc(OC)cc4o3)nc2s1 [Example 39]	> 30 µM	0.22 µM
CCc1nn2cc(-c3nc4cc(C(C)(C)C)ccc4o3)nc2s1 [Example 57]	> 30 µM	0.575 µM
Brc1nn2cc(-c3cc4ccccc4o3)nc2s1 [Example 68]	16.7 µM	0.0553 µM
COc1cc(OC)c2c(C)c(-c3cn4nc(OC)sc4n3)oc2c1 [Example 72]	2.33 µM	0.00391 µM
COc1nn2cc(-c3nc4c(C)cccc4o3)nc2s1 [Example 129]	> 30 µM	0.032 µM
CCC(C)(C)c1ccc2oc(-c3cn4nc(SC)sc4n3)nc2c1 [Example 131]	> 30 µM	0.107 µM
COc1nn2cc(-c3nc4cc(F)ccc4o3)nc2s1 [Example 135]	> 30 µM	0.0496 µM
CSc1nn2cc(-c3nc4c(OC(C)C)cccc4o3)nc2s1 [Example 159]	> 30 µM	0.0284 µM
CSc1nn2cc(-c3nc4ccc(OC(C)C)cc4o3)nc2s1 [Example 161]	> 30 µM	0.0799 µM
COc1ccc2nc(-c3cn4nc(OC)sc4n3)oc2c1 [Example 164]	9.16 µM	0.0154 µM
CSc1nn2cc(-c3nc4c(OCc5cccc(OCc6ccccc6)c5)cccc4o3)nc2s1 [Example 173]	5.28 µM	0.0394 µM
COCCOc1cccc2oc(-c3cn4nc(Br)sc4n3)cc12 [Example 252]	> 30 µM	0.121 µM
CSc1nn2cc(-c3cc4c(OCc5ccccc5)cc(OCc5ccccc5)cc4o3)nc2s1 [Example 253]	> 30 µM	0.114 µM
COc1nn2cc(-c3cc4c(OCc5ccccc5)cc(OCc5ccccc5)cc4o3)nc2s1 [Example 255]	> 30 µM	0.113 µM
COc1ccc(Br)c2cc(-c3cn4nc(SC)sc4n3)oc12 [Example 282]	5.63 µM	0.0496 µM
COc1cc(OCc2cccc(OCc3cccc(F)c3)c2)c2cc(-c3cn4nc(OC)sc4n3)oc2c1 [Example 327]	0.0379 µM	

The remaining lines, values ahead:

IC50 (PAR4 [1])	IC50 (PAR4 [2])	SMILES
	0.00167 µM	COc1cc(OCc2cccc(OCc3cc(C)cc(C)c3)c2)c2cc(-c3cn4nc(OC)sc4n3)oc2c1 [Example 382]
	0.00313 µM	COc1cc(OCc2cccc(OCc3ccc(F)cc3C(F)(F)F)c2)c2cc(-c3cn4nc(OC)sc4n3)oc2c1 [Example 385]
	0.00312 µM	COc1cc(OCc2cccc(OCc3c(OC)cccc3OC)c2)c2cc(-c3cn4nc(OC)sc4n3)oc2c1 [Example 388]
	0.00073 µM	COc1cc(OCc2cccc(OCc3ccc(OC)c(OC)c3)c2)c2cc(-c3cn4nc(OC)sc4n3)oc2c1 [Example 389]
	0.0016 µM	COc1cc(COc2cccc(COc3cc(OC)cc4oc(-c5cn6nc(OC)sc6n5)cc34)c2)cc(OC)c1 [Example 390]
	0.00303 µM	COc1cc(OCc2cccc(OCc3ccc(I)cc3)c2)c2cc(-c3cn4nc(OC)sc4n3)oc2c1 [Example 391]
	0.0383 µM	COc1cc(OCc2cccc(OCc3cc(F)cc(OCc4ccccc4)c3)c2)c2cc(-c3cn4nc(OC)sc4n3)oc2c1 [Example 395]
	0.00451 µM	COc1cc(OCc2cccc(OCc3cc(C(F)(F)F)ccc3C)c2)c2cc(-c3cn4nc(OC)sc4n3)oc2c1 [Example 396]
	0.0023 µM	COc1cc(OCc2cccc(OCc3cccc(NC(=O)c4ccccc4)c3)c2)c2cc(-c3cn4nc(OC)sc4n3)oc2c1 [Example 397]
	0.00747 µM	COc1cc(OCc2cc(OCc3ccccc3)cc(C(F)(F)F)c2)c2cc(-c3cn4nc(OC)sc4n3)oc2c1 [Example 400]
	0.00128 µM	COc1cc(Cl)cc(COc2cccc(COc3cc(OC)cc4oc(-c5cn6nc(OC)sc6n5)cc34)c2)c1 [Example 401]
	0.00086 µM	COc1cc(OCc2cccc(OCc3ccccc3)c2)c2nc(-c3cn4nc(SC)sc4n3)oc2c1 [Example 403]
	3.71 µM	COc1cc(OCc2cccc(OCc3ccccc3)c2)c2oc(-c3cn4nc(OC)sc4n3)cc2c1 [Example 409, 6-(7-((3-(Benzyloxy)benzyl)oxy)-5-methoxybenzofuran-2-yl)-2-methoxyimidazo[2,1-b][1,3,4]thiadiazole]
	0.00779 µM	COc1nn2cc(-c3cc4c(OCc5cccc(OCc6ccccc6)c5)cc(O)cc4o3)nc2s1 [Example 410, 4-((3-(Benzyloxy)benzyl)oxy)-2-(2-methoxyimidazo[2,1-b][1,3,4]thiadiazol-6-yl)benzofuran-6-ol]
	0.00453 µM	CCc1cc(OCc2cccc(OCc3ccccc3)c2)c2cc(-c3cn4nc(OC)sc4n3)oc2c1 [Example 411, 6-(4-((3-(Benzyloxy)benzyl)oxy)-6-ethylbenzofuran-2-yl)-2-methoxyimidazo[2,1-b][1,3,4]thiadiazole]
	0.0725 µM	COc1nn2cc(-c3cc4c(OCc5cccc(OCc6ccccc6)c5)cc(NC(C)=O)cc4o3)nc2s1 [Example 412, N-(4-((3-(Benzyloxy)benzyl)oxy)-2-(2-methoxyimidazo[2,1-b][1,3,4]thiadiazol-6-yl)benzofuran-6-yl)acetamide]
	0.00182 µM	COc1nn2cc(-c3cc4c(OCc5cccc(OCc6ccccc6)c5)cccc4o3)nc2s1 [Example 413, 6-(4-((3-(Benzyloxy)benzyl)oxy)benzofuran-2-yl)-2-methoxyimidazo[2,1-b][1,3,4]thiadiazole]
	0.00517 µM	COc1nn2cc(-c3cc4c(OCc5cccc(OCc6ccccc6)c5)cc(Cl)cc4o3)nc2s1 [Example 414, 6-(4-((3-(Benzyloxy)benzyl)oxy)-6-chlorobenzofuran-2-yl)-2-methoxyimidazo[2,1-b][1,3,4]thiadiazole]
	0.00109 µM	COc1nn2cc(-c3cc4c(OCc5cccc(OCc6ccccc6)c5)cc(OC(F)F)cc4o3)nc2s1 [Example 416, 6-(4-((3-(Benzyloxy)benzyl)oxy)-6-(difluoromethoxy)benzofuran-2-yl)-2-methoxyimidazo[2,1-b][1,3,4]thiadiazole]
	0.00502 µM	COc1nn2cc(-c3cc4c(OCc5cccc(OCc6ccccc6)c5)cc(C#N)cc4o3)nc2s1 [Example 417]
	0.00937 µM	C#Cc1cc(OCc2cccc(OCc3ccccc3)c2)c2cc(-c3cn4nc(OC)sc4n3)oc2c1 [Example 418]
	0.0511 µM	CSc1nn2cc(-c3cc4c(OCc5cccc(OCc6ccccc6)c5)cc(OS(=O)(=O)C(F)(F)F)cc4o3)nc2s1 [Example 420]
	0.0245 µM	CSc1nn2cc(-c3cc4c(OCc5cccc(OCc6ccccc6)c5)cc(O)cc4o3)nc2s1 [Example 421]
	0.698 µM	CC(F)(F)c1nn2cc(-c3cc4c(OCc5cccc(OCc6ccccc6)c5)cc(OS(=O)(=O)C(F)(F)F)cc4o3)nc2s1 [Example 422]
	0.0151 µM	CCOc1cc(OCc2cccc(OCc3ccccc3)c2)c2cc(-c3cn4nc(SC)sc4n3)oc2c1 [Example 423]
	0.0214 µM	CSc1nn2cc(-c3cc4c(OCc5cccc(OCc6ccccc6)c5)cc(OC(F)F)cc4o3)nc2s1 [Example 424]
	0.0124 µM	CSc1nn2cc(-c3cc4c(OCc5cccc(OCc6ccccc6)c5)cc(OC=O)cc4o3)nc2s1 [Example 425]
	0.00191 µM	COc1nn2cc(-c3cc4c(OCc5cccc(OCc6ccccc6)c5)cc(F)cc4o3)nc2s1 [Example 427]
